In publication PMC10786692 (The Journal of Clinical Investigation, 2024):

Assay: Change in full blood count parameters with time (bone marrow toxicity)
Assay type: in vivo, human
Design: Lymphocyte change / Monocyte change / Hb change: unit not given here
Conditions: for Neutrophil / Platelet: in 10^9/L (unit assumed)
Procedure: Patients were assessed weekly during cycle 1 and twice weekly thereafter, with safety assessments including blood hematology and biochemistry, physical examination, and toxicity scoring. Safety and tolerability were assessed using Common Terminology Criteria for Adverse Events (CTCAE), version 4.03.

[1] = part B, 160mg (continuous), change from relative day 0, per patient and time point
[2] = part B, 160mg (continuous), per patient and time point
[3] = patient B138, part B, 160mg (intermittent), time point C1D1
[4] = patient B466, part B, 160mg (intermittent), C26D15, relative day 589
[5] = patient B466, part B, 160mg (intermittent), C26D15, relative day 589, change from Day 0
[6] = patient B466, part B, 160mg (intermittent), C27D15, relative day 603
[7] = patient B466, part B, 160mg (intermittent), C27D15, relative day 603, change from Day 0
[8] = patient B466, part B, 160mg (intermittent), C28D15, relative day 617
[9] = patient B466, part B, 160mg (intermittent), C28D15, relative day 617, change from Day 0
[10] = patient B466, part B, 160mg (intermittent), C29D15, relative day 645
[11] = patient B466, part B, 160mg (intermittent), C29D15, relative day 645, change from Day 0
[12] = patient B466, part B, 160mg (intermittent), C30D15, relative day 673
[13] = patient B466, part B, 160mg (intermittent), C30D15, relative day 673, change from Day 0
[14] = patient B466, part B, 160mg (intermittent), C31D15, relative day 701
[15] = patient B466, part B, 160mg (intermittent), C31D15, relative day 701, change from Day 0

For `C[C@@H]1COCCN1c1cc(C2([S@](C)(=N)=O)CC2)nc(-c2cc[nH]c3nccc2-3)n1` [ceralasertib], the “Platelets and other hematological parameters, intermittent versus continuous schedule” value (160 mg BD, recovering in the treatment break) was “more favorable”, the Hb change [1] was 0 and the Lymphocyte change [1] was 0. The Monocyte change [1] was 0, the Platelet change [1] was 0 and the Neutrophil [2] was 3.29. It also gave a Platelet [2] of 210, a Hb (part B, dose cohort 160mg (continuous), per patient and time point) of 13.7 and a Hb [3] of 11.5. For the same compound, the Neutrophil [3] was 8.54, the Platelet [3] was 213 and the Hb [4] was 101 g/L. The Lymphocyte change [5] was 0.4, the Monocyte change [5] was 0.2 and the Platelet change [5] was 125. For the same compound, the Neutrophil [4] was 4.5, the Platelet [4] was 571 and the Hb [6] was 96. For the same compound, the Lymphocyte change [7] was 0, the Monocyte change [7] was -0.8 and the Platelet change [7] was -198. The Neutrophil [6] was 2.7, the Platelet [6] was 248 and the Hb [8] was 99. It also gave a Lymphocyte change [9] of 0, a Monocyte change [9] of 0.2 and a Platelet change [9] of 142. It also gave a Neutrophil [8] of 2.7, a Platelet [8] of 588 and a Hb [10] of 100 g/L. It also gave a Lymphocyte change [11] of 0.5, a Monocyte change [11] of -0.6 and a Platelet change [11] of 143. The Neutrophil [10] was 4.6, the Platelet [10] was 589 and the Hb [12] was 103 g/L. The Lymphocyte change [13] was 0.5, the Monocyte change [13] was 0.1 and the Platelet change [13] was 118. It also gave a Neutrophil [12] of 3.9, a Platelet [12] of 564 and a Hb [14] of 101 g/L. The Monocyte change [15] was 0.2, the Platelet change [15] was 172 and the Platelet [14] was 618.
